Measured values taken from ChEMBL document CHEMBL1201862, “PubChem BioAssay data set” (2004).
Activity calls are given as the source filed them.

Key:
[1] = biological target: T1, G-protein coupled receptor 55 (Homo sapiens, UniProt Q9Y2T6); assay: GPR55 agonists via beta-arrestin recruitment, primary screen, imaging, U2OS cells, beta-arrestin-GFP redistribution (AID 1961); type: functional
[2] = biological target: T2, Alkaline phosphatase, tissue-nonspecific isozyme (Homo sapiens, UniProt P05186); assay: human TNAP enzyme inhibitors, SAR follow-up, biochemical, luminescent, dose response (AID 1056)
T2 sequence (P05186 whole entry): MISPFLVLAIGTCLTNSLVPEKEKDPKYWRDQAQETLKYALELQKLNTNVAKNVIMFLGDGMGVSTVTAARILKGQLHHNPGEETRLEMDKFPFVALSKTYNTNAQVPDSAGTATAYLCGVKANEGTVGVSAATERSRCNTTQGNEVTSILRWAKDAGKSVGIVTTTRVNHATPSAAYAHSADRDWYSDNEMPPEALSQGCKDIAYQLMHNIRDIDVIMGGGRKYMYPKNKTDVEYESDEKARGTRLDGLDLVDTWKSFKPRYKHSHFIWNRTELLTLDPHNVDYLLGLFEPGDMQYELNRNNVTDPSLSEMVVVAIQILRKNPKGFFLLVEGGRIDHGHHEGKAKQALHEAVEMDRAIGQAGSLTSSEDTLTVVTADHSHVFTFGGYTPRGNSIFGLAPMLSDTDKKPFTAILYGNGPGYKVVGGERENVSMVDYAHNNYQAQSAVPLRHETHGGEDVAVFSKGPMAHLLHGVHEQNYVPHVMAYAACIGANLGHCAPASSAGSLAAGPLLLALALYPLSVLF

[3] = biological target: Alkaline phosphatase, placental type (Homo sapiens, UniProt P05187); assay: PLAP enzyme inhibitors, confirmation, biochemical, luminescence (AID 1512); type: functional
Alkaline phosphatase, placental type, sequence (P05187 whole entry): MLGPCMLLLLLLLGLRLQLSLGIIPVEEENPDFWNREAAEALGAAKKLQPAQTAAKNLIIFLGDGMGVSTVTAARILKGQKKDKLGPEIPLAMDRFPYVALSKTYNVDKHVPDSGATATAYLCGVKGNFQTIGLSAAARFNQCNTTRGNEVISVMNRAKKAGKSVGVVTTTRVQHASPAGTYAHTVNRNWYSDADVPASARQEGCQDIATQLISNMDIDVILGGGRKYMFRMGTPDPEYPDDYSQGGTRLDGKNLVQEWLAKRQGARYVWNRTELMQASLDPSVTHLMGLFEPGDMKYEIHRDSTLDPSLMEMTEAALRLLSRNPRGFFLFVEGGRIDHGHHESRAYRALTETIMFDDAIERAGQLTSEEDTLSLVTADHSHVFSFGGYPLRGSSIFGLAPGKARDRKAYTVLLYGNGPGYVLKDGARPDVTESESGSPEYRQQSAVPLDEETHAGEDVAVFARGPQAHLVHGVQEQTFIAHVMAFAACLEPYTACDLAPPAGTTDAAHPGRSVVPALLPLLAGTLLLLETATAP

[4] = biological target: Glyceraldehyde-3-phosphate dehydrogenase (Homo sapiens, UniProt P04406)
Glyceraldehyde-3-phosphate dehydrogenase, sequence (P04406 whole entry): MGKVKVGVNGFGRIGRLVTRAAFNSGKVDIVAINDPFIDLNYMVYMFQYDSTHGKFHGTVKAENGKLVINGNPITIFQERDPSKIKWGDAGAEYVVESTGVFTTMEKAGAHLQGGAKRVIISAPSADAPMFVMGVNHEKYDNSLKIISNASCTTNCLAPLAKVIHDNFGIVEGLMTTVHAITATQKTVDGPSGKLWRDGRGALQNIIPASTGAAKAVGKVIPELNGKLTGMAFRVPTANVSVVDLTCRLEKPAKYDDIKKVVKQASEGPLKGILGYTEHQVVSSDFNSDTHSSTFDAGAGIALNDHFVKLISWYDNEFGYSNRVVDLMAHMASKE

[5] = biological target: T1, G-protein coupled receptor 55; assay: GPR55 antagonists blocking LPI-driven arrestin recruitment, primary screen, imaging, U2OS, beta-arrestin-GFP, LPI agonist (AID 2013); type: functional;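 also: antagonist potency measured as reduced agonist-driven arrestin aggregation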
[6] = biological target: DNA dC->dU-editing enzyme APOBEC-3G (Homo sapiens, UniProt Q9HC16); assay: Dose Response confirmation of small molecule APOBEC3G DNA Deaminase Inhibitors via a fluorescence-based single-stranded DNA deaminase assay. [Related pubchem assays (depositor defined):AID493012, AID493028]; type: functional
DNA dC->dU-editing enzyme APOBEC-3G, sequence (Q9HC16 whole entry): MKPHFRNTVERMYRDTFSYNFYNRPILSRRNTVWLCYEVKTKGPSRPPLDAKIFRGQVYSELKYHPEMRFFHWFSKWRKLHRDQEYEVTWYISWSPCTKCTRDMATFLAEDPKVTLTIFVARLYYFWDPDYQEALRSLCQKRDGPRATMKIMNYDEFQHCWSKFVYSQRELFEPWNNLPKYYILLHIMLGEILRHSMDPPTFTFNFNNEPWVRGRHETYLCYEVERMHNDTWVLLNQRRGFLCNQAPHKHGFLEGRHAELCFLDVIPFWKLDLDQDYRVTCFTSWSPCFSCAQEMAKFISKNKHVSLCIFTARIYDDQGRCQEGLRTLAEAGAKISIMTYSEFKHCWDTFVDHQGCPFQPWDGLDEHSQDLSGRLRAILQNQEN

[7] = biological target: DNA dC->dU-editing enzyme APOBEC-3A (Homo sapiens, UniProt P31941); assay: APOBEC3A DNA deaminase inhibitors, dose response, biochemical (AID 504722); type: functional
DNA dC->dU-editing enzyme APOBEC-3A, sequence (P31941 whole entry): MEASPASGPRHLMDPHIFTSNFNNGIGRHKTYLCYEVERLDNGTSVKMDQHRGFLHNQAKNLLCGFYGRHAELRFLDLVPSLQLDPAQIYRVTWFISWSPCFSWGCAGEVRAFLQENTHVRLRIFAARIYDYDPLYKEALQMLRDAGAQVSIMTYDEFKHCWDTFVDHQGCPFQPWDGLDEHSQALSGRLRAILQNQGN

Troponin, cardiac muscle = Troponin, cardiac muscle (Homo sapiens, UniProt P19429+P45379+P63316); assay: Fluorescence-based biochemical high throughput dose response assay for activators of the calcium sensitivity of cardiac Regulated Thin Filaments (RTF). [Related pubchem assays (depositor defined):AID493008, AID493018, AID504382, AID504383]; type: protein-complex assay
[8] = Counterscreen for AddAB inhibitors: absorbance-based bacterial cell-based high throughput dose response assay for inhibitors of bacterial viability. [Related pubchem assays (depositor defined):AID435030, AID449728, AID449731, AID488942, AID488955, AID488956]; type: functional
[9] = HepG2 cell cytotoxicity, dose response, cytotoxicity control for non-replicating M. tuberculosis project (AID 489018); type: functional; conditions: Mycobacterium tuberculosis
[10] = THP-1 cell cytotoxicity, dose response, cytotoxicity control for non-replicating M. tuberculosis project (AID 489025); type: functional
[11] = Vero E6 cell cytotoxicity, dose response, cytotoxicity control for non-replicating M. tuberculosis project, secondary assay (AID 492998); type: functional, VeroE6; conditions: Vero C1008
Paired box protein Pax-8 = Paired box protein Pax-8 (Homo sapiens, UniProt Q06710); assay: inhibitors of PAX8-driven TPO luciferase reporter, dose response, RMG-I cells, cherry-pick (AID 687027); type: functional, cell-based;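 also: luciferase reporter driven by Pax8 target thyroperoxidase promoter measured by SteadyGlo luminescence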
Paired box protein Pax-8, sequence (Q06710 whole entry): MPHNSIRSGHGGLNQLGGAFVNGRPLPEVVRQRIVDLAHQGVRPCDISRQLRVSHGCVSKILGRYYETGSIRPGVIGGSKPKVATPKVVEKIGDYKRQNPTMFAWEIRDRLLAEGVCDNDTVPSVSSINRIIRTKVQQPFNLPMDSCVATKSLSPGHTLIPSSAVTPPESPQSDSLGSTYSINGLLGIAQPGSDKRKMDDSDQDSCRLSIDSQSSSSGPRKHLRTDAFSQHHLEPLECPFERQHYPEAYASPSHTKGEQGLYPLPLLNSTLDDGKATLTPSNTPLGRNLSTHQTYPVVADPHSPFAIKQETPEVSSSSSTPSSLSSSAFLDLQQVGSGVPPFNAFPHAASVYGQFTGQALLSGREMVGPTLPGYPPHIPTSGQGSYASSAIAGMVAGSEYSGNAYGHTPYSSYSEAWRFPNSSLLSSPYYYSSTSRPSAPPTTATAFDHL

cells = type: functional
[12] = biological target: T3, Microphthalmia-associated transcription factor (Homo sapiens, UniProt O75030); assay: TRPM1 promoter luciferase signal decrease, dose response, MITF inhibitor project, cell-based, SK-MEL-5, cherry-picked, set 3 (AID 493073); type: functional
T3 sequence (O75030 whole entry): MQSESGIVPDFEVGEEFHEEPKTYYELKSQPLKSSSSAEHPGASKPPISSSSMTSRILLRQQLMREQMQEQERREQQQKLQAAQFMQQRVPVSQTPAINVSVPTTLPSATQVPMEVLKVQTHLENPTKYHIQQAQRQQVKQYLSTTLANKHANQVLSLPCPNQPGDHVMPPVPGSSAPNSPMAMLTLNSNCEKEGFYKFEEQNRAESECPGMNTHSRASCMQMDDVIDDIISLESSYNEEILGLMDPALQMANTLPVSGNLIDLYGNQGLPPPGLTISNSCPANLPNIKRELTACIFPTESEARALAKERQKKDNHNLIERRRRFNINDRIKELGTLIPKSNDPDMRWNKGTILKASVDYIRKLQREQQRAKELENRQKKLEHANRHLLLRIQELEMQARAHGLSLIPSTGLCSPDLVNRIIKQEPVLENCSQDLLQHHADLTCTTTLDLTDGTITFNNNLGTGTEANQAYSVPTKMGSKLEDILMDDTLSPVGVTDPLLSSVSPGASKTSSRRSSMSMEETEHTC

Exodeoxyribonuclease V = biological target: T4, Exodeoxyribonuclease V (Escherichia coli (strain K12), UniProt P04993+P07648+P08394); assay: E. coli RecBCD inhibitors, dose response, counter-screen for AddAB inhibitor project, absorbance, V66 E. coli, mutant T4 phage (AID 492957); type: functional, cell-based, Escherichia coli str. K-12 substr. MG1655
T4 sequence (P04993 whole entry): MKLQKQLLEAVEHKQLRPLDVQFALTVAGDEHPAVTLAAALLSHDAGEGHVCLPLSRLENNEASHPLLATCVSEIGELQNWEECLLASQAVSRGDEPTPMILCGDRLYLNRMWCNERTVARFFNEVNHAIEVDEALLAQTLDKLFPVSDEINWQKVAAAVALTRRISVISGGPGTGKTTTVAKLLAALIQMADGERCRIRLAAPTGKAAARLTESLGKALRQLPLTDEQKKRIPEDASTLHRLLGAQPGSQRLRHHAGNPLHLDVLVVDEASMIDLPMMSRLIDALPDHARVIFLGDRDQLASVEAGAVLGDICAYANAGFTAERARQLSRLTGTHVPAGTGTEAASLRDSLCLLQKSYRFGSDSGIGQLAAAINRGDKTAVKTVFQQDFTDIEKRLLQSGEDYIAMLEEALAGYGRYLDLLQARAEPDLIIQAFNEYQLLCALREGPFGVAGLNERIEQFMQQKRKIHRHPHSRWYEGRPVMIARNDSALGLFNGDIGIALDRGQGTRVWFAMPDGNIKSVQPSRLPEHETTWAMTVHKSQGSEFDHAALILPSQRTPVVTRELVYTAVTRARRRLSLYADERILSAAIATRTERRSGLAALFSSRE
T4 sequence (P07648 whole entry): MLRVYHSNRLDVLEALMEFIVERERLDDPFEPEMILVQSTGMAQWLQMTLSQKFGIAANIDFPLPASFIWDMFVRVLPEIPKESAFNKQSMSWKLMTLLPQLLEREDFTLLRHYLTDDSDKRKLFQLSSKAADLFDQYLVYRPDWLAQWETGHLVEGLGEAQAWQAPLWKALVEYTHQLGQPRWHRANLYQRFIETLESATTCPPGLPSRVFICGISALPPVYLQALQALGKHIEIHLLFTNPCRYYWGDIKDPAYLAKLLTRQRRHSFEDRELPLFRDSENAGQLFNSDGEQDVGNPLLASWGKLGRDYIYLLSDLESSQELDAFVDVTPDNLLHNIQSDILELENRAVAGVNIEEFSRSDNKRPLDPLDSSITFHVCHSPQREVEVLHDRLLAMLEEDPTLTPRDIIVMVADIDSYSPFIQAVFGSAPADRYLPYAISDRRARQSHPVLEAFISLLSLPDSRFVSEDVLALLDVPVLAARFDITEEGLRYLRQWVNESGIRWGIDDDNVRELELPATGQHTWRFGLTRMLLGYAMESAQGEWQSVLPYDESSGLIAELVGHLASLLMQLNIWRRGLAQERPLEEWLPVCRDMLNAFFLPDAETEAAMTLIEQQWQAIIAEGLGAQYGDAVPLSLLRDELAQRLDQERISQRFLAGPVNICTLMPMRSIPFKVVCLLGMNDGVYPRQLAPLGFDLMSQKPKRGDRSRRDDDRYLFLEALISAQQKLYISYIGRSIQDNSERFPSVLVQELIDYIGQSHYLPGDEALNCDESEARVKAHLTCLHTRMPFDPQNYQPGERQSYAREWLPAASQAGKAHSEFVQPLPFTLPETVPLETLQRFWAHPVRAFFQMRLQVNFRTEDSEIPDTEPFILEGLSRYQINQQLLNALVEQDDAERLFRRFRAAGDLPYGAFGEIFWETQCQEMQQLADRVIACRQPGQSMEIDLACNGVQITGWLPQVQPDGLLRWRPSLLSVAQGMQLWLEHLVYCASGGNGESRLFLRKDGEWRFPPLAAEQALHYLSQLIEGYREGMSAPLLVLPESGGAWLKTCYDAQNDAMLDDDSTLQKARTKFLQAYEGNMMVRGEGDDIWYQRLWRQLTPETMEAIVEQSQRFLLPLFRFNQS
T4 sequence (P08394 whole entry): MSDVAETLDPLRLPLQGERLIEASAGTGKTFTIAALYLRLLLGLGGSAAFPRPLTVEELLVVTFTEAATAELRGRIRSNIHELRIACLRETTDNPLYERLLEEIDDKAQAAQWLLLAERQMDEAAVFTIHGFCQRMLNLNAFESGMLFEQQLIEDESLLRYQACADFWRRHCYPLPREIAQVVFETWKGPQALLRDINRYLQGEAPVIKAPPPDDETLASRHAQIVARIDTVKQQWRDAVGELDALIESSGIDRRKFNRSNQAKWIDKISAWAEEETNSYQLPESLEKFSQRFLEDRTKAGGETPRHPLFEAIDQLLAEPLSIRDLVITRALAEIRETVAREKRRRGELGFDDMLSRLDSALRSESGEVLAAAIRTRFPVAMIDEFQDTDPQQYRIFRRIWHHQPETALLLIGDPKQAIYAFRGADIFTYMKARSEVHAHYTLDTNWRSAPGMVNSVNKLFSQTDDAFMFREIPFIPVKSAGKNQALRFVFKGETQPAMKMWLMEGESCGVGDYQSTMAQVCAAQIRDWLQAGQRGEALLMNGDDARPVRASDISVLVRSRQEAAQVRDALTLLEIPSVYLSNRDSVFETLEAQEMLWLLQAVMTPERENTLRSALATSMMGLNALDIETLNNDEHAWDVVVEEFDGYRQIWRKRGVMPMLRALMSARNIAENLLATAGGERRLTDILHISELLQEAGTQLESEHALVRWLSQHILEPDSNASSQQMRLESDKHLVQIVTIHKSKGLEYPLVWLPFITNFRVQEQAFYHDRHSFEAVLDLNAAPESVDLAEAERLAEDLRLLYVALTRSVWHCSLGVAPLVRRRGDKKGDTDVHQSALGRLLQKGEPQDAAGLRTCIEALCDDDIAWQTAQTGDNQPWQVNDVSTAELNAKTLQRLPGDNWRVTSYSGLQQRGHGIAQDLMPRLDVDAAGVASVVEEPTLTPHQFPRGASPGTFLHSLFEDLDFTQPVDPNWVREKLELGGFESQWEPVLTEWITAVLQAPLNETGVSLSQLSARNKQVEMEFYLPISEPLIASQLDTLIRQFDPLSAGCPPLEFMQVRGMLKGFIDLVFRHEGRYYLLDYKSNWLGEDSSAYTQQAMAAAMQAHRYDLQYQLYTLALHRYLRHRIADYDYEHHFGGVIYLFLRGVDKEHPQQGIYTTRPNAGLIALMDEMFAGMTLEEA

[13] = biological target: Kappa-type opioid receptor (Homo sapiens, UniProt P41145); assay: SAR analysis of small molecule agonists of the kappa opioid receptor via a luminescent beta-arrestin assay - Set 3. [Related pubchem assays (depositor defined):AID1777, AID1785, AID1786, AID1966, AID2133, AID2136, AID2284, AID2500]; type: functional
Kappa-type opioid receptor, sequence (P41145 whole entry): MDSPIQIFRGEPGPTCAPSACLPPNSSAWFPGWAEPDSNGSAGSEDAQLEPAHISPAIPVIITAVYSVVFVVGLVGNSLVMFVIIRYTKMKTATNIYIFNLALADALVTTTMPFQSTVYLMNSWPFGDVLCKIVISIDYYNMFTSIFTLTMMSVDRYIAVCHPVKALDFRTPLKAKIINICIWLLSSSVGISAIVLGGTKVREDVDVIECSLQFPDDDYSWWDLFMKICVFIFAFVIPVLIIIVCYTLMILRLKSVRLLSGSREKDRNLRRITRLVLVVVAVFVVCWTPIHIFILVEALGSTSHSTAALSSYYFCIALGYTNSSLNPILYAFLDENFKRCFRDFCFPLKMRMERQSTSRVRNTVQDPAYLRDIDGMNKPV

[14] = cytotoxicity toward NIH3T3 fibroblasts, dose response, counter-screen, cell-based, ATP luminescence, mouse fibroblasts (AID 2010); type: functional;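 also: cells exposed to compound for about 90 hours before reading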
[15] = inhibitors of intracellular T. cruzi replication, confirmation, NIH3T3 host cells, beta-gal luminescence (AID 2044); type: functional, cell-based;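 also: intracellular parasites grown in NIH/3T3 mouse fibroblasts as host cells; luminescent beta-galactosidase reporter signal from transgenic T. cruzi replicating inside host cells; inhibitors lower the luminescence signal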
[16] = human group III sPLA2 inhibitors, dose response, biochemical, QFRET, IC50 (AID 743457);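 also: green fluorescence rise as the enzyme cleaves BODIPY PC-A2 in liposomes; potency for inhibition of the enzyme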

T1 sequence (Q9Y2T6 whole entry): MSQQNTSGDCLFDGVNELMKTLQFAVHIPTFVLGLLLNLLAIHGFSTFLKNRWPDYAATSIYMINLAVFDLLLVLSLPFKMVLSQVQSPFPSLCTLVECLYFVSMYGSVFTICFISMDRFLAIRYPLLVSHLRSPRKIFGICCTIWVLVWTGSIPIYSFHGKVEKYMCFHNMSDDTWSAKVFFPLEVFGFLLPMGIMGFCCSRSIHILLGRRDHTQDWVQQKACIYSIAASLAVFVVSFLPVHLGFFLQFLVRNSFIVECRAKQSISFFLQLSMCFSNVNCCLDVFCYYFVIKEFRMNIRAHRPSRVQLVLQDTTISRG

For O=C(Oc1ccccc1/C=C\C(=O)c1cc2ccccc2o1)c1ccccc1, the EC50 [1] was 15.4 µM (inactive).
With Nc1nc(Cc2ccc3ccccc3c2)n(-c2ccccc2)n1 the IC50 [2] was > 100 µM (inactive), the IC50 [3] was > 100 µM (inactive) and the IC50 [4] was > 100 µM (not active).
In the case of Cc1cc(NCC(=O)c2ccc(O)c(O)c2)[nH]n1, the IC50 [2] is reported as 18.3 µM (active) and the IC50 [3] is reported as 5.71 µM (active).
For Cn1cccc1/C=C1\C(=O)NC(=O)N(Cc2ccccc2Cl)C1=O, the IC50 [5] was 0.978 µM (active).
For Sc1nccn1-c1ccc(Cl)cc1, the IC50 [6] was 16.8 µM (active) and the IC50 [7] was > 100 µM (inactive).
In the case of CCCNC(=O)Cn1c(=O)/c(=C\c2ccc(-c3ccc([N+](=O)[O-])cc3)o2)s/c1=C\C(=O)C(C)(C)C, the EC50 (Troponin, cardiac muscle) is reported as 0.165 µM (active).
For CC(C)C(=O)N1CCN(c2ccc(NC(=O)c3ccc([N+](=O)[O-])o3)cc2)CC1, the IC50 [8] was > 119 µM (inactive), the CC50 [9] was 9.53 µM (active) and the CC50 [10] was 5.52 µM (active). The CC50 [11] was 3.34 µM (active), the AC50 (Paired box protein Pax-8) was 4.48 µM (active) and the IC50 (cells) was 0.54 µM (active). The AC50 [12] was 7.98 µM (active) and the IC50 (Exodeoxyribonuclease V) was > 119 µM (inactive).
For Clc1ccccc1Cn1c(SCc2ccc(Br)cc2)nnc1-c1ccccn1, the EC50 [13] was 14.2 µM (inactive).
In the case of CCn1nnc(NC(=O)c2ccc([N+](=O)[O-])o2)n1, the IC50 [8] is reported as 61.7 µM (inactive), the CC50 [9] is reported as > 20 µM (active) and the CC50 [10] is reported as 38.5 µM (active). The CC50 [11] was 4.8 µM (active), the EC50 [14] was > 60 µM (inconclusive) and the IC50 (Exodeoxyribonuclease V) was > 118 µM (inactive). The EC50 [15] was 0.179 µM (active).
With CCn1c(S)nnc1-c1cccc(Br)c1 the IC50 [16] was > 122 µM (inactive), the IC50 [6] was 4.37 µM (active) and the IC50 [7] was > 100 µM (inactive).
With CC1(C)CC(=O)C(/C=N/c2cc(C(=O)c3ccccc3)ccc2N)=C(O)C1 the EC50 (Troponin, cardiac muscle) was 20.4 µM (inactive).
